From patent US20230270772A1, “USE OF 5'-METHYLTHIOADENOSINE IN PREPARATION OF OBESITY-SUPPRESSING DRUGS OR HEALTH CARE PRODUCTS” (Zhejiang Chinese Medical University, priority 2022, published 2023) come the findings set out here.

In assay [1] the test system is HepG2 hepatoma cells. Put plainly: Suppression of uric acid-induced lipogenesis in HepG2 hepatoma cells (oil red staining). As to conditions: uric acid 120 μg/mL + 0.05, 0.1, 0.5, 1.0 and 5.0 μg/mL for 24 h, FIG. 3. Format: cell-based. The procedure:
HepG2 hepatoma cells were induced to synthesize fat by uric acid (120 μg/mL). After 24 h, the cells were divided into two groups for testing. The cells of model group continued to be induced with uric acid (120 μg/mL) for 24 h.

Assay [2] relates to high-fat diet-induced obesity in C57BL/6 mice. Put plainly: Suppression of high-fat diet-induced obesity, gavage for 11 weeks. In kind it is in vivo. The settings on record: 50 and 100 mg/kg/day by gavage. The procedure:
Eight-week-old C57BL/6 mice were divided into three groups (a control group, a model group, and a drug-treated group). The mice of control group were fed with a low-fat diet, the mice of model group were fed with a high-fat diet, and the mice of drug-treated group were fed with high-fat diet+5′-methylthioadenosine (50 and 100 mg/kg/day) by gavage for 11 weeks, during which the body weight of the mice was recorded, and OGTT and ITT thereof were conducted.

Assay [3] concerns high-fat diet-induced obesity in C57/BL mice. The assay is described as follows: Comparison of MTA and adenosine in suppressing high-fat diet-induced obesity. The settings on record: 8-week-old C57BL/6 mice, tube-feeding 100 mg/kg/day, FIG. 2A-2D. Format: in vivo. The source says: Experimental animals: 8-week-old C57BL/6 mice; Diets and drugs: low-fat diet (10% kcal as fat, product #D12450J, Research Diets), high-fat diet (60% kcal as fat, product #D12492, Research Diets), MTA, and adenosine.

Assay [4] deals with high-fat diet-induced obesity in C57BL/6 mice. Put plainly: Suppression of high-fat diet-induced obesity, gavage for 9 weeks. Format: in vivo. The settings on record: 100 mg/kg/day by gavage. The procedure: Eight-week-old C57BL/6 mice were divided into three groups (a control group, a model group, and a drug-treated group) (FIG. 4A). The mice of control group were fed with a low-fat diet, and the mice of model group were fed with a high-fat diet ad libitum. The mice of drug-treated group were fed with high-fat diet+5′-methylthioadenosine (100 mg/kg/day) by gavage for 9 weeks, during which the body weight of the mice was recorded, and OGTT and ITT thereof were conducted.

The structures appear in SMILES notation.

`CSC[C@H]1O[C@@H](n2cnc3c(N)ncnc32)[C@H](O)[C@@H]1O` [5′-methylthioadenosine, 5′-Methylthioadenosine]: the “uric acid-induced lipogenesis (amount of synthetic fat, oil red staining)” value in assay [1] is “significantly inhibiting uric acid-induced lipogenesis in HepG2 cells with a concentration gradient effect”. Also, the “high-fat diet-induced obesity (body weight)” value is “significantly suppressing high-fat diet-induced obesity, with a concentration gradient effect” in assay [2] (FIG. 5A, 5B) and “significantly suppressing high-fat diet-induced obesity” in assay [4] (FIG. 4B). For the same compound, the “oral glucose tolerance and insulin tolerance (OGTT, ITT)” value in assay [2] (FIG. 5G-5J) was “improving oral glucose tolerance and insulin tolerance in mice”; in assay [4] (FIG. 4H, 4I), “improving oral glucose tolerance and insulin tolerance in mice”. Further, the “liver lipogenesis and gains of subcutaneous and visceral fats (perirenal, testicular)” value in assay [2] (after sacrifice, FIG. 5C-5F) was “suppressing the liver lipogenesis and the gains of subcutaneous fats and visceral fats, with a concentration gradient effect”. Also, the “obesity-suppressing effect (body weight, liver weight, subcutaneous and visceral fat weight)” value in assay [3] is recorded as “significantly better than that of adenosine”. In addition, the “liver lipogenesis and gains of subcutaneous and visceral fats” value in assay [4] (after sacrifice, FIG. 4C-4G) is “suppressing the liver lipogenesis and the gains of subcutaneous fats and visceral fats”.

Consider `Nc1ncnc2c1ncn2[C@@H]1O[C@H](CO)[C@@H](O)[C@H]1O` [adenosine], for which the “obesity-suppressing effect (body weight, liver weight, subcutaneous and visceral fat weight)” value in assay [3] was “shown to inhibit the body weight and liver weight gains and fat accumulation in mice”.
